PubChem BioAssay (NCI)
Values joined by “and” are separate entries in the source; they are usually repeats but may differ in a detail not shown here. Equal values may be shown once.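 Cultured in 96-well plates, cells were exposed to test compound for 48 hours across five concentrations. Abbreviation: GI50, concentration required for 50% inhibition of growth. The concentration for full growth arrest is given as TGI.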

Experiments:
Assay in all cases: inhibition of tumour cell growth, NCI panel, 48 h
NCI-H226 lung = test system: NCI-H226 lung
NCI-H460 lung = test system: NCI-H460 lung
M14 melanoma = test system: M14 melanoma
SR leukemia = test system: SR leukemia
EKVX NSCLC = test system: EKVX NSCLC
HCT-15 colon = test system: HCT-15 colon
A498 renal = test system: A498 renal
T-47D breast = test system: T-47D breast
NCI/ADR-RES ovarian = test system: NCI/ADR-RES ovarian
MDA-MB-231 breast = test system: MDA-MB-231 breast

O=C(Cc1nc2c3c(ccc2[nH]c1=O)C(=O)c1ccccc1C3=O)C(=O)Nc1ccccc1[N+](=O)[O-]
TGI (NCI-H226 lung): 40.5 µM
TGI (NCI-H460 lung): 97.6 µM
TGI (M14 melanoma): 34 µM
TGI (SR leukemia): 51.1 µM
TGI (EKVX NSCLC): 36.7 µM

O=C(NC(COC(=O)C(Cc1ccccc1)NC(=O)c1ccccc1)Cc1ccccc1)c1ccccc1 (configuration not stated)
TGI (NCI-H460 lung): > 50 µM
TGI (M14 melanoma): > 50 µM
TGI (SR leukemia): > 50 µM
TGI (HCT-15 colon): > 50 µM
TGI (A498 renal): > 50 µM
TGI (EKVX NSCLC): > 50 µM

CC(C)(C)OC(=O)NCCC(N)=S
TGI (NCI-H226 lung): > 100 µM
TGI (T-47D breast): > 100 µM
TGI (NCI-H460 lung): > 100 µM
TGI (M14 melanoma): > 100 µM
TGI (SR leukemia): > 100 µM
TGI (HCT-15 colon): > 100 µM
TGI (A498 renal): > 100 µM
TGI (EKVX NSCLC): > 100 µM
TGI (NCI/ADR-RES ovarian): > 100 µM

Oc1[nH]c2ccc(Br)cc2c1N=NC(=S)Nc1ccc(F)cc1
TGI (MDA-MB-231 breast): 35.5 µM
TGI (NCI-H226 lung): 40.1 µM
TGI (T-47D breast): 35.4 µM
TGI (NCI-H460 lung): 15.3 µM
TGI (SR leukemia): 12.2 µM
TGI (HCT-15 colon): 11.8 µM
TGI (A498 renal): 8.76 µM
TGI (NCI/ADR-RES ovarian): 6.63 µM

COc1cc2c(cc1OC)[C@H]1CN3CCC[C@H]3C=C1c1ccc(OC)c(O)c1-2
TGI (MDA-MB-231 breast): 0.0523 µM
TGI (NCI-H226 lung): 0.0102 µM
TGI (T-47D breast): 0.132 µM
TGI (NCI-H460 lung): 0.00509 µM and 0.0106 µM
TGI (M14 melanoma): 0.000985 µM
TGI (SR leukemia): 0.00437 µM

CC1=C2C(=C[C@H]3[C@]4(C)CCCC(C)(C)[C@H]4CC[C@]34O[C@H]24)OC1=O
TGI (MDA-MB-231 breast): > 100 µM
TGI (NCI-H226 lung): > 100 µM
TGI (NCI-H460 lung): > 100 µM
TGI (M14 melanoma): > 100 µM
TGI (HCT-15 colon): > 100 µM
TGI (A498 renal): > 100 µM
TGI (EKVX NSCLC): > 100 µM
TGI (NCI/ADR-RES ovarian): > 100 µM

N#CC1=C(c2ccccc2)NNC(c2ccc(Cl)cc2)CC1=O (configuration not stated)
TGI (NCI-H226 lung): 8.26 µM
TGI (NCI-H460 lung): > 100 µM
TGI (M14 melanoma): 68.9 µM
TGI (SR leukemia): > 100 µM
TGI (HCT-15 colon): > 100 µM
TGI (A498 renal): > 100 µM

O=C1Sc2ccccc2C(=O)N2CSCC12 (configuration not stated)
TGI (NCI-H226 lung): > 100 µM
TGI (NCI-H460 lung): > 100 µM
TGI (M14 melanoma): > 100 µM
TGI (SR leukemia): > 100 µM
TGI (EKVX NSCLC): > 100 µM

CSC(=Nc1ccccc1)N(c1ccccc1)c1nc(=[N+](C)C)ss1
TGI (NCI-H460 lung): 18.1 µM
TGI (M14 melanoma): 2.5 µM
TGI (SR leukemia): 8.01 µM
TGI (HCT-15 colon): 13.7 µM
TGI (A498 renal): 27.9 µM
TGI (EKVX NSCLC): 29.5 µM

COc1ccc(CC2c3c(cc(OC)c(OC)c3OC)CCN2C)cc1OC (configuration not stated)
TGI (NCI-H460 lung): > 100 µM
TGI (M14 melanoma): > 100 µM
TGI (HCT-15 colon): > 100 µM
TGI (A498 renal): > 100 µM
TGI (EKVX NSCLC): > 100 µM

CC(=O)Oc1cc(C(F)(F)F)ccc1C(=O)OC1(C)OC(=O)c2ccc(C(F)(F)F)cc2O1 (configuration not stated)
TGI (MDA-MB-231 breast): > 100 µM
TGI (NCI-H226 lung): > 100 µM
TGI (T-47D breast): > 100 µM
TGI (NCI-H460 lung): > 100 µM
TGI (M14 melanoma): > 100 µM
TGI (HCT-15 colon): > 100 µM
TGI (A498 renal): > 100 µM
TGI (EKVX NSCLC): > 100 µM
TGI (NCI/ADR-RES ovarian): > 100 µM

CC(O)CCCOC(c1ccccc1)(c1ccccc1)c1ccccc1 (configuration not stated)
TGI (MDA-MB-231 breast): 33.3 µM
TGI (NCI-H226 lung): 30.2 µM
TGI (NCI-H460 lung): 30.6 µM
TGI (M14 melanoma): 29.1 µM
TGI (SR leukemia): > 57.4 µM
TGI (HCT-15 colon): 29.8 µM
TGI (A498 renal): 34.7 µM
TGI (EKVX NSCLC): 28.1 µM
TGI (NCI/ADR-RES ovarian): 24 µM

CCCCn1cnc2c(c(CC#N)nn2-c2ccccc2)c1=N
TGI (MDA-MB-231 breast): > 100 µM
TGI (NCI-H226 lung): > 100 µM
TGI (T-47D breast): > 100 µM
TGI (NCI-H460 lung): > 100 µM
TGI (M14 melanoma): > 100 µM
TGI (HCT-15 colon): > 100 µM
TGI (A498 renal): 91.6 µM
TGI (EKVX NSCLC): > 100 µM
TGI (NCI/ADR-RES ovarian): > 100 µM

Cc1ccc(OCCn2cc(Nc3ccccc3)c(=O)n(CCOc3ccc(C)cc3)c2=O)cc1
TGI (MDA-MB-231 breast): > 100 µM
TGI (NCI-H226 lung): > 100 µM
TGI (T-47D breast): > 100 µM
TGI (NCI-H460 lung): > 100 µM
TGI (M14 melanoma): > 100 µM
TGI (HCT-15 colon): > 100 µM
TGI (A498 renal): > 100 µM
TGI (EKVX NSCLC): > 100 µM
TGI (NCI/ADR-RES ovarian): > 100 µM

CC(=O)O[C@H]1C(=O)[C@@]2(C)[C@H]([C@H](OC(=O)c3ccc(F)cc3)[C@]3(O)C[C@H](OC(=O)[C@H](O)[C@@H](NC(=O)c4ccccc4)c4ccccc4)C(C)=C1C3(C)C)[C@]1(OC(C)=O)CO[C@@H]1C[C@@H]2O
TGI (MDA-MB-231 breast): > 25 µM
TGI (NCI-H226 lung): > 25 µM
TGI (T-47D breast): > 9.63 µM
TGI (HCT-15 colon): > 25 µM
TGI (A498 renal): > 6.73 µM
TGI (EKVX NSCLC): > 25 µM
TGI (NCI/ADR-RES ovarian): > 25 µM

C(=Nc1ccc(-c2nc3ccccc3o2)cc1)c1ccco1
TGI (T-47D breast): > 100 µM
TGI (M14 melanoma): > 100 µM
TGI (SR leukemia): > 100 µM
TGI (HCT-15 colon): > 100 µM
TGI (A498 renal): 95 µM
TGI (EKVX NSCLC): > 100 µM
TGI (NCI/ADR-RES ovarian): > 100 µM

CC12CCC3C(CCC4CC(OC(=O)Cc5ccc(N(CCCl)CCCl)cc5)CCC43C)C1CCC(=O)N2 (configuration not stated)
TGI (NCI-H226 lung): 30.1 µM
TGI (NCI-H460 lung): 22.4 µM
TGI (M14 melanoma): 32.2 µM
TGI (SR leukemia): 16.8 µM
TGI (HCT-15 colon): 28.3 µM
TGI (A498 renal): 31.4 µM
TGI (EKVX NSCLC): 30.5 µM

COc1ccc(-c2oc(/C=N/NC(N)=S)c([N+](=O)[O-])c2-c2ccc(OC)c(OC)c2)cc1OC
TGI (NCI-H226 lung): 62.4 µM
TGI (M14 melanoma): 67.9 µM
TGI (HCT-15 colon): > 100 µM
TGI (EKVX NSCLC): 80.4 µM

O=c1[nH]cnc(NC2C=C(CO)C(O)C2O)c1[N+](=O)[O-] (configuration not stated)
TGI (NCI-H226 lung): > 100 µM
TGI (NCI-H460 lung): > 58.2 µM
TGI (M14 melanoma): > 100 µM
TGI (SR leukemia): > 100 µM
TGI (HCT-15 colon): > 54.7 µM
TGI (A498 renal): > 100 µM
TGI (EKVX NSCLC): > 100 µM

CCN(CC)CCCNC(=O)c1ccc([N+](=O)[O-])cc1O
TGI (NCI-H226 lung): > 100 µM
TGI (NCI-H460 lung): > 100 µM
TGI (M14 melanoma): > 100 µM
TGI (HCT-15 colon): > 100 µM
TGI (A498 renal): > 100 µM
TGI (EKVX NSCLC): > 100 µM

Cc1c(N2C(=O)C(Cl)C2c2ccc(Cl)cc2)c(=O)n(-c2ccccc2)n1C (configuration not stated)
TGI (MDA-MB-231 breast): > 100 µM
TGI (NCI-H226 lung): > 100 µM
TGI (T-47D breast): > 100 µM
TGI (NCI-H460 lung): > 100 µM
TGI (M14 melanoma): > 100 µM
TGI (SR leukemia): > 100 µM
TGI (EKVX NSCLC): > 100 µM
TGI (NCI/ADR-RES ovarian): > 100 µM

Nc1ccc(-c2nc3ccccc3s2)cc1C(F)(F)F
TGI (MDA-MB-231 breast): 26.3 µM
GI50 (NCI-H226 lung): 15.3 µM
TGI (NCI-H226 lung): 34.4 µM
TGI (T-47D breast): 20.6 µM
GI50 (NCI-H460 lung): 14.6 µM
TGI (NCI-H460 lung): 28.5 µM
TGI (M14 melanoma): 28.7 µM
TGI (HCT-15 colon): 27.6 µM
TGI (A498 renal): 31.4 µM
TGI (EKVX NSCLC): 23.9 µM
TGI (NCI/ADR-RES ovarian): 35.2 µM

COc1ccc(/C=C2\C[C@H]3[C@@H]4CCC5=C/C(=N/O)CC[C@]5(C)[C@H]4CC[C@]3(C)\C2=N\O)cc1OC
TGI (NCI-H226 lung): > 100 µM
TGI (T-47D breast): > 100 µM
TGI (NCI-H460 lung): > 100 µM
TGI (M14 melanoma): > 100 µM
TGI (SR leukemia): > 100 µM
TGI (HCT-15 colon): > 100 µM
TGI (A498 renal): > 100 µM
TGI (EKVX NSCLC): 32 µM
TGI (NCI/ADR-RES ovarian): > 100 µM

O=C(O)C(SC1=NNC2(C(=O)N1)c1ccccc1-c1ccccc12)SC1=NNC2(C(=O)N1)c1ccccc1-c1ccccc12
TGI (MDA-MB-231 breast): > 10 µM
TGI (NCI-H226 lung): > 10 µM
TGI (T-47D breast): > 10 µM
TGI (NCI-H460 lung): > 10 µM
TGI (M14 melanoma): > 10 µM
TGI (HCT-15 colon): > 10 µM
TGI (A498 renal): > 10 µM
TGI (EKVX NSCLC): > 10 µM
TGI (NCI/ADR-RES ovarian): > 10 µM

O=C1NCCS(=O)(=O)N[C@@H](CC2=CC=CCC2)C(=O)N2CCCC12 (some centres not stated)
TGI (NCI-H226 lung): > 100 µM
TGI (NCI-H460 lung): > 100 µM
TGI (M14 melanoma): > 100 µM
TGI (SR leukemia): > 100 µM
TGI (HCT-15 colon): > 100 µM
TGI (A498 renal): > 100 µM
TGI (EKVX NSCLC): > 100 µM
